{"source": "patent US12637413B2", "about": "“Fatty acid amide hydrolase (FAAH) cleavable prodrugs of thyromimetics and combination with peripherally restricted FAAH inhibitors” (Autobahn Therapeutics, Inc., priority 2021, dated 2026)", "key": {"FAAH": {"target": "T1, FAAH (Mus musculus, UniProt O08914)", "T1 construct": "from tissue; host or cells: living mice; plasma, liver and brain sampled", "T1 sequence (O08914 1-579)": "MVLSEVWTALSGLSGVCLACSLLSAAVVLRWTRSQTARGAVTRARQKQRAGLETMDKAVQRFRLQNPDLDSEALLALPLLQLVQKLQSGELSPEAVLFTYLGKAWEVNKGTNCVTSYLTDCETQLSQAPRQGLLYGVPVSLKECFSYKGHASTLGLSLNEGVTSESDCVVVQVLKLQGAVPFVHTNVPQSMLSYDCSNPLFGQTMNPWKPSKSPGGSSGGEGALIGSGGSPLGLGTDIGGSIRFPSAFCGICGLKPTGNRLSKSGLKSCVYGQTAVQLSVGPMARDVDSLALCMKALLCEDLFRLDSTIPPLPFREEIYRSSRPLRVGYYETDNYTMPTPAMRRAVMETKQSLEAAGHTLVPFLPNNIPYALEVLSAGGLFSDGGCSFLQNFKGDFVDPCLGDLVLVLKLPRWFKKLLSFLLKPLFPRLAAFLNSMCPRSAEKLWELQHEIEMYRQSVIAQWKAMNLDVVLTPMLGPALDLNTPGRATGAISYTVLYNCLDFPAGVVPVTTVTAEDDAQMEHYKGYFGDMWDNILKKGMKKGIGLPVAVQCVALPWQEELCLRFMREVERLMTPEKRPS", "assay": "tissue distribution after co-dosing prodrug ABX-002 with or without PFI or GFI", "format": "in vivo, mice", "conditions": "plasma, liver and brain, co-dosing with PFI or GFI", "experimental": "The ability of globally-penetrant and peripherally-restricted FAAH inhibitors (GFI & PFI, respectively) to alter distribution of ABX-002 and ABX-002A was assessed.\nTable 5 depicts the inhibition of active metabolite (LL-650177 or PF-044578454) in AUC in the plasma, liver, and brain after prodrug (ABX-002) co-dosing. Tissue distribution studies in mice confirm global & peripheral inhibition of FAAH."}, "T4": {"test_system": "T4", "assay": "plasma T4 (ELISA) after 7 days PO QD dosing", "format": "in vivo, Female C57BL/6 mice", "conditions": "Mus musculus; effects on plasma T4, PO QD 7 days, 4 or 8 h after last dose", "experimental": "Female C57BL/6 mice (n=5/group), 6-8 weeks old, were acclimated to the study room for at least 3 days before dose administration in the studies. Mice were dosed at 5 mL/kg based on most recent body weight, collected once for the duration of the study. Based on most recent body weight, collected once for the duration of the study, mice were placed into weight-matched treatment dosing cohorts. Mice were given a single administration of PFI or vehicle orally (PO) daily (n=5/group) for 7 days at time=−1 hour. Following the PFI (100 μg/kg) or vehicle dose (10 mL/kg, p.o.), animals were given test article daily at time=0 hour. […] RNA from samples harvested 4 hours after final dose was quantified using a hybridization-based in situ RNA quantification method (NanoString, Seattle, WA), as described below. RNA from samples harvested 8 hours after final dose was quantified using a hybridization-based in situ RNA quantification method (QuantiGene Plex), as described below. […]\nT4 was measured in terminal plasma samples using an ELISA kit (Biovision, Inc., Thyroxine [T4] [Mouse/Rat] ELISA Kit, Cat #: K7421-100). […] Absorbance was read at 450 nm within 15 min of addition of the Stop Solution using a Varioskan Lux plate reader (ThermoFisher Scientific, Carlsbad, CA). […] Unknown sample concentrations were determined using GraphPad Prism software (GraphPad Prism 9.0.2, GraphPad Software, San Diego, CA). […]"}}}
{"smiles": "CNC(=O)COc1cc(Cl)c(Cc2ccc(O)c(C(C)C)c2)c(Cl)c1", "note": "[Compound 1]", "values": [{"measurement": "prodrug levels with FAAH inhibition", "setting": "FAAH", "value": "did not change or slightly increased"}, {"measurement": "ED50", "setting": "T4", "value": 3.4, "unit": "µg/kg"}]}
